Reference: patent publication US20080207614A1, “QUINAZOLINE DERIVATIVES FOR THE TREATMENT AND PREVENTION OF DIABETES AND OBESITY” (SK CHEMICALS CO., LTD., priority 2004, published 2008)

What was measured:
C2C12 muscle cells = test: Analysis of glucose absorption (2-deoxyglucose) in differentiated C2C12 muscle cells; type: cell-based; conditions: test materials 10 μM, times relative to control group
Method in brief: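 Uptake of 0.2 μCi 2-deoxyglucose over 20 min, counted radiometrically in lysed cells. Before tracer, compounds (10 μM) were applied for 30 min to C2C12 cells differentiated 6 days in 1% serum and equilibrated 3 h in 5 mM glucose KRB.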

AMPK = test: Measurement of AMPK activity by Western blot in C2C12 cells; type: cell-based; design: key to AMPK activity (degree of phosphorylation of serine-79 and threonine-172): fold increase in threonine-172 phosphorylation; AMPK activity (degree of phosphorylation of serine-79): unit not given here; conditions: 10 μM for 50 minutes; for AMPK activity (degree of phosphorylation of serine-79 and threonine-172): no superscript: Western blot of serine-79 and threonine-172 phosphorylation; for AMPK activity (class: degree of phosphorylation of threonine-172): strong/mild/weak; for AMPK activity (degree of phosphorylation of serine-79): footnote a: Western blot of serine-79 phosphorylation
Method in brief: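 Western blot readout of AMPK Thr-172 and ACC Ser-79 phosphorylation, normalised against ERK, served as the activity measure. Cells were C2C12 after differentiation, treated 50 minutes with 10 μM test material. Grading by Thr-172 increase: ≥3-fold strong, 1-3-fold mild, <1-fold weak.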

Row | SMILES | Glucose absorption (C2C12 muscle cells) | AMPK activity (degree of phosphorylation of serine-79 and threonine-172) (AMPK) | AMPK activity (class: degree of phosphorylation of threonine-172) (AMPK) | AMPK activity (degree of phosphorylation of serine-79) (AMPK)
1 | COc1ccccc1CNc1nc(C(OC)c2ccccc2)nc2ccccc12 (stereo not shown) [Compound 360, (2-Methoxybenzyl)-[2-(methoxyphenylmethyl)-quinazolino-4-yl]-amine] | 1.4 | 2.2 |  | 
2 | COc1ccc(OC)c(CNc2nc(C(OC)c3ccccc3)nc3ccccc23)c1 (stereo not shown) [Compound 369, (2,5-Dimethoxybenzyl)-[2-(methoxyphenylmethyl)-quinazolino-4-yl]-amine] | 1.1 | 4.5 |  | 
3 | FC(F)(F)c1ccc(CNc2nc(-c3ccccc3)nc3ccccc23)cc1 [Compound 139, (2-Phenylquinazolino-4-yl)-(4-trifluoromethylbenzyl)-amine] | 2.5 | 2.1 | strong (“strong” means that the degree of phosphorylation of threonine-172 increased by 3 times or more) | 
4 | COc1cccc(CNc2nc(Cc3ccccc3)nc3ccccc23)c1OC [Compound 329, (2-Benzylquinazolino-4-yl)-(2,3-dimethoxybenzyl)-amine] | 1.8 | 4.2 |  | 
5 | COc1cccc(CNc2nc(C(C)c3ccccc3)nc3ccccc23)c1 (stereo not shown) [Compound 372, (3-Methoxybenzyl)-[2-(1-phenylethyl)-quinazolino-4-yl]-amine] | 1.1 | 6.3 |  | 
6 | Cc1nc(NCc2ccccc2)c2ccccc2n1 [Compound 163, Benzyl-(2-methylquinazolino-4-yl)-amine] | 2.5 | 2.8 | strong (“strong” means that the degree of phosphorylation of threonine-172 increased by 3 times or more) | 
7 | CCSc1nc(NCCCCc2ccccc2)c2ccccc2n1 [Compound 30, (2-Ethylsulfanylquinazolino-4-yl)-(4-phenylbutyl)-amine] | 1.8 |  | mild (“mild” means that the degree of phosphorylation of threonine-172 increased by 1 to 3 times) | 
8 | Fc1ccc(CNc2nc(-c3ccccc3)nc3ccccc23)c(F)c1 [Compound 134, (2,4-Difluorobenzyl)-(2-phenylquinazolino-4-yl)-amine] | 2.6 | 1.8 | strong (“strong” means that the degree of phosphorylation of threonine-172 increased by 3 times or more) | 
9 | CC(Nc1nc(C(Cl)(Cl)Cl)nc2ccccc12)c1ccccc1 (stereo not shown) [Compound 5, (1-Phenylethyl)-(2-trichloromethylquinazolino-4-yl)-amine] | 0.9 |  |  | 4.7^a
10 | CC(C)c1nc(NCc2ccc3c(c2)OCO3)c2ccccc2n1 [Compound 182, Benzo[1,3]dioxol-5-ylmethyl-(2-isopropylquinazolino-4-yl)-amine] | 3.1 | 2.9 | strong (“strong” means that the degree of phosphorylation of threonine-172 increased by 3 times or more) | 
11 | COc1ccc(CNc2nc(C)nc3ccccc23)cc1 [Compound 165, (4-Methoxybenzyl)-(2-methylquinazolino-4-yl)-amine] | 2.5 | 5.2 | strong (“strong” means that the degree of phosphorylation of threonine-172 increased by 3 times or more) | 
12 | Cc1nc(NCc2cccc3ccccc23)c2ccccc2n1 [Compound 169, (2-Methylquinazolino-4-yl)-naphthaleno-1-ylmethylamine] | 2.5 | 6.6 | strong (“strong” means that the degree of phosphorylation of threonine-172 increased by 3 times or more) | 
13 | Fc1ccc(F)c(CNc2nc(-c3ccccc3)nc3ccccc23)c1 [Compound 135, (2,5-Difluorobenzyl)-(2-phenylquinazolino-4-yl)-amine] | 2.6 | 2.0 | strong (“strong” means that the degree of phosphorylation of threonine-172 increased by 3 times or more) | 
14 | COc1ccc(OC)c(CNc2nc(C3CC3)nc3ccccc23)c1 [Compound 391, (2-Cyclopropylquinazolino-4-yl)-(2,5-dimethoxybenzyl)-amine] | 1.2 | 7.1 |  | 
15 | O=[N+]([O-])c1cccc(CNc2nc(-c3ccccc3)nc3ccccc23)c1 [Compound 116, (3-Nitrobenzyl)-(2-phenylquinazolino-4-yl)-amine] | 2.5 | 2.0 | strong (“strong” means that the degree of phosphorylation of threonine-172 increased by 3 times or more) | 
16 | c1ccc(-c2nc(NCCN3CCCCC3)c3ccccc3n2)cc1 [Compound 101, (2-Phenylquinazolino-4-yl)-(2-piperidino-1-ylethyl)-amine] | 1.5 |  | weak (“weak” means that the degree of phosphorylation of threonine-172 increased by less than 1 time) | 
17 | C=CCNc1ncnc2cc(OCC)c(OCC)cc12 [Compound 16, Allyl-(6,7-diethoxyquinazolino-4-yl)-amine] | 1.3 |  |  | 3.1^a
18 | COc1cc(OC)c(CNc2nc(C(OC)c3ccccc3)nc3ccccc23)c(OC)c1 (stereo not shown) [Compound 370, [2-(Methoxyphenylmethyl)-quinazolino-4-yl]-(2,4,6-trimethoxybenzyl)-amine] | 1.3 | 7.7 |  | 
19 | COc1cccc(CNc2nc(-c3cccs3)nc3ccccc23)c1OC [Compound 353, (2,3-Dimethoxybenzyl)-(2-thiopenyl-2-ylquinazolino-4-yl)-amine] | 1.2 | 0.8 |  | 
20 | CC(C)Nc1nc(C(Cl)(Cl)Cl)nc2ccccc12 [Compound 2, Isopropyl-(2-trichloromethylquinazolino-4-yl)-amine] | 1.3 |  |  | 4.2^a
21 | COc1ccc(CNc2nc(N3CCOCC3)nc3ccccc23)cc1OC [Compound 301, (3,4-Dimethoxybenzyl)-(2-morpholino-4-ylquinazolino-4-yl)-amine] | 0.8 | 0.9 |  | 
22 | COc1cc(CNc2nc(N3CCOCC3)nc3ccccc23)cc(OC)c1 [Compound 305, (3,5-Dimethoxybenzyl)-(2-morpholino-4-ylquinazolino-4-yl)-amine] | 0.8 | 2.1 |  | 
23 | COc1ccc(OC)c(CNc2nc(N3CCN(C)CC3)nc3ccccc23)c1 [Compound 298, (2,5-Dimethoxybenzyl)-[2-(4-methylpiperazino-1-yl)-quinazolino-4-yl]-amine] | 0.6 | 0.7 |  | 
24 | CCSc1nc(NCc2c(F)cccc2Cl)c2ccccc2n1 [Compound 49, (2-Chloro-6-fluorobenzyl)-(2-ethylsulfanylquinazolino-4-yl)-amine] | 1.8 |  | mild (“mild” means that the degree of phosphorylation of threonine-172 increased by 1 to 3 times) | 
25 | COc1ccc(OC)c(CNc2nc(C(C)c3ccccc3)nc3ccccc23)c1 (stereo not shown) [Compound 380, (2,5-Dimethoxybenzyl)-[2-(1-phenylethyl)-quinazolino-4-yl]-amine] | 1.0 | 1.9 |  | 
26 | Brc1cccc(CNc2nc(-c3ccccc3)nc3ccccc23)c1 [Compound 153, (3-Bromobenzyl)-(2-phenylquinazolino-4-yl)-amine] | 2.4 | 1.3 | mild (“mild” means that the degree of phosphorylation of threonine-172 increased by 1 to 3 times) | 
27 | CC(C)(C)c1nc(NCCCCc2ccccc2)c2ccccc2n1 [Compound 192, (2-tert-Butylquinazolino-4-yl)-(4-phenylbutyl)-amine] | 2.1 | 6.5 | strong (“strong” means that the degree of phosphorylation of threonine-172 increased by 3 times or more) | 
28 | COc1cc(CNc2nc(-c3ccccc3)nc3ccccc23)ccc1O [Compound 113, 2-Methoxy-4-[(2-phenylquinazolino-4-ylamino)-methyl]-phenol] | 2.1 | 2.1 | strong (“strong” means that the degree of phosphorylation of threonine-172 increased by 3 times or more) | 
29 | Clc1ccccc1CCNc1nc(-c2ccccc2)nc2ccccc12 [Compound 151, [2-(2-Chlorophenyl)-ethyl]-(2-phenylquinazolino-4-yl)-amine] | 1.3 | 1.8 | strong (“strong” means that the degree of phosphorylation of threonine-172 increased by 3 times or more) | 
